Results taken from patent publication US20160291027A1, “METHODS FOR […] ABILITY OF A Z[…] COMPOUND TO TREAT CANCER” (Eisai R&D Management Co., Ltd., priority 2007, published 2016).

System: cell lines which carried a BRAF V600E mutation
Experiment: Cell growth assay (CellTiter-Glo or methylene blue) in solid cancer cell lines
Assay type: cell-based
Settings: 96 hours, 0.3-10000 nM
Procedure: In a separate experiment, Compounds 091 and 106 were tested in solid cancer cell lines from different tissue types (shown in FIG. 3B for 21 cell lines for compound 091 and 19 cell lines for compound 106). All cell lines were introduced into 96-well plates and grown in the absence or continuous presence of 0.3-10000 nM of either compound 091 or compound 106 for 96 hours. Cell growth was assessed using a CellTiter-Glo® Luminescent Cell Viability Assay (Promega) or a methylene blue assay. IC50 values were determined as the concentration of a substance which inhibits cell growth by 50% compared to untreated cell populations.

SMILES: CNc1cc(O)c2c(c1)/C=C/C[C@H](O)[C@H](O)C(=O)/C=C\[C@@H](C)[C@H](C)OC2=O [Compound 091]
- Sensitivity of BRAF V600E cell lines (concentration range): low-nM or sub-μM concentration range
